From the NIST ThermoML archive (doi:10.1016/j.fluid.2018.02.009)

Details: Liquid, Closed cell (Static) method

O=C=O [carbon dioxide]
Details | vapor or sublimation pressure [kPa]
213.22 K | 410.4
223.15 K | 681.8
243.13 K | 1426.3
263.13 K | 2646.7
273.22 K | 3491.3
283.15 K | 4502.3
299.22 K | 6595
